# In article PMC11101637, “Bioinformatics leading to conveniently accessible, helix enforcing, bicyclic ASX motif mimics (BAMMs)” (Nature Communications, 2024):
# Numbered stars: 1 amine (or outer) side, 2 acyl side, 3 side chain; on linkers, the order of the positions; unused ones are H or OH. Bridge positions count the residues as written; N and C are the ends. Ends that are not written are not given here. Peptide text beside a SMILES is read from it. * marks the point of attachment. X2 = C[C@@H]1NC(=O)[C@H](C)NC(=O)[C@H](CC(=O)O)NC(=O)[C@@H](N)CSCc2cc3cc(c2)CSC[C@@H](C(=O)*)NC(=O)[C@H](CSC3)NC1=O; mXylylene = c1cc(C[*:1])cc(C[*:2])c1
# Key:
# circular dichroism = settings: PBS; pH 7.4; 25 °C; 5-30 uM
# [1] = CD spectroscopy: percent helicity and ellipticity ratio 222/208 nm; assay type: physicochemical; settings: for % helicity: 5-30 μM peptide, three scans averaged, [θ]222/[θ]max
# Method: Circular dichroism (CD) experiments
# Concentrations of the stock solution were determined by […] absorption of Trp or 275 nm absorption of Tyr (and TMB, if present in peptides). Each sample was dissolved in 1x PBS (pH 7.4), 10% TFE/PBS or 20% TFE/PBS with the final concentration between 5 to 30 μM. CD spectra were acquired using circular dichroism spectrometer (Chirascan) equipped with a temperature controller using 1 mm cell at a scan speed of 0.5 nm/sec at indicated temperature. Each sample was scanned three times and the averaged spectrum was smoothed.
# Calculation of percent helicity
# For simplicity, ‘helicity’ or ‘helical’ in the following text all refers to α-type. For each peptide, mean residue ellipticities ([θ]/(c*n), c = concentration of the peptide, n = number of amino acids in the peptide) were used to calculate % helicity, which is an empirical indicator of peptide helicity. […] (n = number of amino acids in the peptide, T = 25.0 °C).
# [2] = In vitro peptide stability in human serum; assay type: in vitro ADME; settings: 25% male human serum diluted in RPMI medium, 150 μM peptide, 37 °C, serum pre-equilibrated 15 min, methanol precipitation, RP-HPLC 210 nm peak area relative to 0 h, LC-MS for products
# Method: In vitro peptide stability in human serum[50]
# Male human serum (H-4522) was obtained from Sigma Aldrich (Missouri, USA). […] The initial time is recorded as peptides were added. The mixture was incubated at 37 °C and an aliquot of 40 μL was removed at different time intervals. […] The supernatant was analyzed in analytical RP-HPLC to calculate the amount of tested peptides, and in LCMS to analyze degradation products. The eluted peptides were detected by absorbance at 210 nm and quantified by their peak areas relative to the initial peak areas (0 h).
# [3] = Amide H-D exchange study (NMR), protection factors; assay type: physicochemical; settings: for H/D exchange experiment, per-residue value (Fig 5i): amide H-D exchange by NMR
# Method: Lyophilized samples of peptides LDLL 12-mer and bicyclo 12-mer from the above experiments were dissolved in 600 µL of D2O/ TFE-d3 mixture (4:1) to initialize the H-D exchange. The pH of the solution was confirmed. Spectra were recorded on a preshimmed Bruker AVANCE 500 MHz spectrometer. The recorded temperature was 33 °C. The intensity changes for each amide proton were determined by monitoring either the NH peaks on 1D spectra or the cross-peaks between NH and RH on 2D TOCSY spectra when overlapping was severe. The peak intensity data was fit into one phase exponential equation to get the exchange rate constants using GraphPad Prism 6.0 program. The rate constants were input into Englander lab’s spreadsheet (https://hx2.med.upenn.edu/download.html) to calculate protection factor and stabilization energy.
# [4] = CD in PBS buffer (pH 7.4, 10 mM), 25.0 °C, 1 mm cell
"% helicity [1, 4]",Molecule,helicity (circular dichroism),other results
–,C[C@H](NC(=O)[C@H](CCCCN)NC(=O)[C@H](C)NC(=O)[C@H](C)NC(=O)[C@H](C)NC(=O)[C@@H]1CSCc2cc3cc(c2)CSC[C@H](NC(=O)[C@@H](N)Cc2c[nH]c4ccccc24)C(=O)N[C@@H](CC(=O)O)C(=O)N[C@@H](C)C(=O)N[C@@H](C)C(=O)N[C@@H](CSC3)C(=O)N1)C(N)=O,59%,–
–,C[C@H](NC(=O)[C@H](CCCCN)NC(=O)[C@H](C)NC(=O)[C@H](C)NC(=O)[C@H](C)NC(=O)[C@@H]1CSCc2cccc(c2)CSC[C@H](NC(=O)[C@@H](N)Cc2c[nH]c3ccccc23)C(=O)N[C@@H](CC(=O)O)C(=O)N[C@@H](C)C(=O)N[C@@H](C)C(=O)N[C@@H](C)C(=O)N1)C(N)=O (H-WCDAAACAAAKA-NH2; linker 2-7 via mXylylene),34%,–
–,C[C@H](NC(=O)[C@H](CCCCN)NC(=O)[C@H](C)NC(=O)[C@H](C)NC(=O)[C@H](C)NC(=O)[C@H](C)NC(=O)[C@@H]1CSCc2cccc(c2)CSC[C@H](NC(=O)[C@@H](N)Cc2c[nH]c3ccccc23)C(=O)N[C@@H](CC(=O)O)C(=O)N[C@@H](C)C(=O)N[C@@H](C)C(=O)N1)C(N)=O (H-WCDAACAAAAKA-NH2; linker 2-6 via mXylylene),32%,–
10%,CSC[C@H](NC(=O)[C@H](C)NC(=O)[C@H](CCC(N)=O)NC(=O)[C@H](CC(=O)O)NC(=O)[C@@H](N)CSC)C(=O)N[C@@H](CSC)C(=O)N[C@@H](CC(C)C)C(=O)N[C@@H](CC(C)C)C(=O)N[C@@H](CCCNC(=N)N)C(=O)N[C@@H](C)C(=O)N[C@@H](CC(C)C)C(=O)N[C@@H](CC(=O)O)C(=O)N[C@@H](CCC(N)=O)C(=O)N[C@@H](Cc1ccc(O)cc1)C(N)=O [2m] (H-C(Me)DQAC(Me)C(Me)LLRALDQY-NH2; N-terminus and C-terminus assumed),10%,"ellipticity ratio 222/208 nm ([1]; CD in 10% TFE/PBS, 25 °C): 0.44; % helicity ([1]; CD in 10% TFE/PBS, 25 °C): 24%; ellipticity ratio 222/208 nm ([1]; CD in PBS, 25 °C): 0.23"
–,C[C@H](NC(=O)[C@H](CCCCN)NC(=O)[C@H](C)NC(=O)[C@H](C)NC(=O)[C@H](C)NC(=O)[C@@H]1CSCc2cc3cc(c2)CSC[C@H](NC(=O)[C@@H](N)Cc2c[nH]c4ccccc24)C(=O)N[C@@H](CC(=O)O)C(=O)N[C@@H](C)C(=O)N[C@@H](C)C(=O)N[C@@H](CSC3)C(=O)N1)C(N)=O [Bicyclo-short],–,"H/D exchange experiment, per-residue value (Fig 5i) ([3]; resi ID 3): 1.33; H/D exchange experiment, per-residue value (Fig 5i) ([3]; resi ID 4): 1.81; H/D exchange experiment, per-residue value (Fig 5i) ([3]; resi ID 5): 2.88; H/D exchange experiment, per-residue value (Fig 5i) ([3]; resi ID 6): 3.7; H/D exchange experiment, per-residue value (Fig 5i) ([3]; resi ID 7): 2.57; H/D exchange experiment, per-residue value (Fig 5i) ([3]; resi ID 8): 2.46; H/D exchange experiment, per-residue value (Fig 5i) ([3]; resi ID 9): 2.32; H/D exchange experiment, per-residue value (Fig 5i) ([3]; resi ID 10): 2.24"
59%,C[C@H](NC(=O)[C@H](CCCCN)NC(=O)[C@H](C)NC(=O)[C@H](C)NC(=O)[C@H](C)NC(=O)[C@@H]1CSCc2cc3cc(c2)CSC[C@H](NC(=O)[C@@H](N)Cc2c[nH]c4ccccc24)C(=O)N[C@@H](CC(=O)O)C(=O)N[C@@H](C)C(=O)N[C@@H](C)C(=O)N[C@@H](CSC3)C(=O)N1)C(N)=O [bicyclo 12-mer],–,"ellipticity ratio 222/208 nm ([1]; CD in 10% TFE/PBS, 25 °C): 1.21; % helicity ([1]; CD in 10% TFE/PBS, 25 °C): 72%; ellipticity ratio 222/208 nm ([1]; CD in PBS, 25 °C): 0.76; protection factors (H/D exchange) around the capping region ([3]; D2O/TFE-d3 (4:1), 33 °C, NMR 500 MHz): significantly higher than for the linear LDLL 12-mer"
64%,Ac-AAAAKAAAAKAAAAKAAAAKAW-NH2 [AAKA 22-mer],64%,–
48%,Ac-AAAAKAAAAKAAAAKAW-NH2 [AAKA],48%,–
17%,Ac-AAAAKAAAAKAW-NH2 [AAKA 12-mer],17%,"ellipticity ratio 222/208 nm ([1]; CD in 10% TFE/PBS, 25 °C): 0.47; % helicity ([1]; CD in 10% TFE/PBS, 25 °C): 35%; ellipticity ratio 222/208 nm ([1]; CD in PBS, 25 °C): 0.26"
55%,Ac-ADAAAAAAAKAAAAKAW-NH2 [ADAA],55%,–
45%,Ac-ADAALLAAAKAAAAKAW-NH2 [ADLL],45%,–
53%,Ac-FDAALLAAAKAAAAKAW-NH2 [FDLL],53%,–
69%,Ac-IDAALLAAAKAAAAKAW-NH2 [IDLL],69%,–
45%,Ac-LAAALLAAAKAAAAKAW-NH2 [LALL],45%,–
69%,Ac-LDAAALAAAKAAAAKAW-NH2 [LDAL],69%,–
52%,Ac-LDAAELAAAKAAAAKAW-NH2 [LDEL],52%,–
69%,Ac-LDAAFLAAAKAAAAKAW-NH2 [LDFL],69%,–

"% helicity [1, 4]",Molecule,helicity (circular dichroism),other results
39%,Ac-LDAALAAAAKAAAAKAW-NH2 [LDLA],39%,–
83%,Ac-LDAALFAAAKAAAAKAW-NH2 [LDLF],83%,–
52%,Ac-LDAALIAAAKAAAAKAW-NH2 [LDLI],52%,–
101%,Ac-LDAALLAAAKAAAAKAAAAKAW-NH2 [LDLL 22-mer],101%,–
93%,Ac-LDAALLAAAKAAAAKAW-NH2 [LDLL],93%,–
–,Ac-LDAALLAAAKAW-NH2,28%,–
28%,Ac-LDAALLAAAKAW-NH2 [LDLL 12-mer],–,"ellipticity ratio 222/208 nm ([1]; CD in 10% TFE/PBS, 25 °C): 0.57; % helicity ([1]; CD in 10% TFE/PBS, 25 °C): 43%; ellipticity ratio 222/208 nm ([1]; CD in PBS, 25 °C): 0.39"
–,Ac-LDAALLAAAKAW-NH2 [LDLL-short],–,"H/D exchange experiment, per-residue value (Fig 5i) ([3]; resi ID 1): 0.3; H/D exchange experiment, per-residue value (Fig 5i) ([3]; resi ID 3): 1.3; H/D exchange experiment, per-residue value (Fig 5i) ([3]; resi ID 4): 1.66; H/D exchange experiment, per-residue value (Fig 5i) ([3]; resi ID 5): 1.96; H/D exchange experiment, per-residue value (Fig 5i) ([3]; resi ID 6): 1.83; H/D exchange experiment, per-residue value (Fig 5i) ([3]; resi ID 7): 1.96; H/D exchange experiment, per-residue value (Fig 5i) ([3]; resi ID 9): 2.2; H/D exchange experiment, per-residue value (Fig 5i) ([3]; resi ID 10): 1.69; H/D exchange experiment, per-residue value (Fig 5i) ([3]; resi ID 11): 1.68"
70%,Ac-LDAALVAAAKAAAAKAW-NH2 [LDLV],70%,–
37%,Ac-LDAAQLAAAKAAAAKAW-NH2 [LDQL],37%,–
67%,Ac-LDAASLAAAKAAAAKAW-NH2 [LDSL],67%,–
63%,Ac-LDAATLAAAKAAAAKAW-NH2 [LDTL],63%,–
13%,Ac-QAEELLRALDQY-NH2 [2l],13%,"ellipticity ratio 222/208 nm ([1]; CD in 10% TFE/PBS, 25 °C): 0.53; % helicity ([1]; CD in 10% TFE/PBS, 25 °C): 23%; ellipticity ratio 222/208 nm ([1]; CD in PBS, 25 °C): 0.27"
16%,Ac-QVARQLAEIY-NH2 [1l],16%,"ellipticity ratio 222/208 nm ([1]; CD in 10% TFE/PBS, 25 °C): 0.64; % helicity ([1]; CD in 10% TFE/PBS, 25 °C): 20%; ellipticity ratio 222/208 nm ([1]; CD in PBS, 25 °C): 0.48"
48%,Ac-VDAALLAAAKAAAAKAW-NH2 [VDLL],48%,–
–,"WCAAACCAAAKA (also: bicyclic or more (positions not given here)) [bicyclo-D/A 12-mer, bicyclo 12-mer with Asp Ncap replaced with Ala]",–,"reduction of helicity on substitution of Asp Ncap by Ala ([1]; CD in PBS, relative to bicyclo 12-mer): 49%"

Molecule,"% helicity [1, 4]",helicity (circular dichroism),other results
CC[C@H](C)[C@H](NC(=O)[C@H](CC(N)=O)NC(=O)[C@H](CCCCN)NC(=O)[C@@H]1CSCc2cc3cc(c2)CSC[C@H](N)C(=O)N[C@@H](CC(=O)O)C(=O)N[C@@H](C)C(=O)N[C@@H](C)C(=O)N[C@@H](CSC3)C(=O)N1)C(=O)N[C@@H](C)C(=O)N[C@@H](CO)C(=O)N[C@@H](CC(C)C)C(=O)N[C@@H](CC(C)C)C(=O)N[C@@H](CCCNC(=N)N)C(=O)N[C@H](C(=O)N[C@@H](CCC(N)=O)C(=O)N[C@@H](C)C(=O)N[C@@H](Cc1c[nH]cn1)C(=O)N[C@H](C(=O)N[C@@H](CCCNC(=N)N)C(=O)N[C@@H](CCCCN)C(=O)N[C@@H](CCCCN)C(=O)N[C@@H](CCSC)C(=O)N[C@H](C(=O)N[C@@H](Cc1ccc(O)cc1)C(N)=O)C(C)C)[C@@H](C)CC)C(C)C [4B] (X2-KNIASLLRVQAHIRKKMVY-NH2; N-terminus and C-terminus assumed),22%,–,"half-life [2]: 1.1 h; ellipticity ratio 222/208 nm ([1]; CD in 10% TFE/PBS, 25 °C): 1; % helicity ([1]; CD in 10% TFE/PBS, 25 °C): 45%; ellipticity ratio 222/208 nm ([1]; CD in PBS, 25 °C): 0.64"
